Laboratory results: ChEMBL document CHEMBL3885881, “DrugMatrix”

Species: Rattus norvegicus
Assay: DrugMatrix - Regimen: Daily Repeat
Assay type: toxicity, organism-based, Sprague-Dawley
Design: regimen Daily Repeat, gender Male, age 6-8 weeks
Conditions: in vivo, po, route oral GAVAGE, vehicle 100 % SALINE; for ABSOLUTE BASOPHIL / ABSOLUTE EOSINOPHIL / ABSOLUTE LYMPHOCYTE / ABSOLUTE MONOCYTE / ABSOLUTE SEGMENTED NEUTROPHIL / BASOPHIL / EOSINOPHIL / ERYTHROCYTE COUNT / HEMOGLOBIN / LEUKOCYTE COUNT / LYMPHOCYTE / MEAN CORPUSCULAR HEMOGLOBIN / MEAN CORPUSCULAR HEMOGLOBIN CONCENTRATION / MEAN CORPUSCULAR VOLUME / MONOCYTE / NEUTROPHIL / NUCLEATED RED BLOOD CELLS / PLATELET COUNT / HEMATOCRIT: tissue Blood
[1] = 200 mg/kg, 120 h, dose level Low, time 5 day
[2] = 200 mg/kg, 120 h, tissue Plasma, dose level Low, time 5 day
[3] = 600 mg/kg, 72 h, dose level High, time 3 day
[4] = 600 mg/kg, 72 h, tissue Plasma, dose level High, time 3 day
[5] = 600 mg/kg, 120 h, dose level High, time 5 day
[6] = 600 mg/kg, 120 h, tissue Plasma, dose level High, time 5 day

With LEAD(IV) ACETATE the “ABSOLUTE BASOPHIL” value [1] was 0 CELLS/uL, the “ABSOLUTE EOSINOPHIL” value [1] was 0 CELLS/uL and the “ABSOLUTE LYMPHOCYTE” value [1] was 11837.33 CELLS/uL. For the same substance, the “ABSOLUTE MONOCYTE” value [1] was 82.67 CELLS/uL, the “ABSOLUTE SEGMENTED NEUTROPHIL” value [1] was 680 CELLS/uL and the BASOPHIL [1] was 0%. For the same substance, the EOSINOPHIL [1] was 0%, the “ERYTHROCYTE COUNT” value [1] was 5.76 x10E6/uL and the HEMOGLOBIN [1] was 13.8 G/DL. The “LEUKOCYTE COUNT” value [1] was 12.6 x10E3/uL, the LYMPHOCYTE [1] was 93.67% and the “MEAN CORPUSCULAR HEMOGLOBIN” value [1] was 23.93 pg. For the same substance, the “MEAN CORPUSCULAR HEMOGLOBIN CONCENTRATION” value [1] was 39.23 G/DL, the “MEAN CORPUSCULAR VOLUME” value [1] was 61.03 fL and the MONOCYTE [1] was 0.67%. For the same substance, the NEUTROPHIL [1] was 5.67%, the “NUCLEATED RED BLOOD CELLS” value [1] was 0.33 /100WBC and the “PLATELET COUNT” value [1] was 1075 x10E3/uL. The “ALANINE AMINOTRANSFERASE” value [2] was 43.33 u/L, the “ALKALINE PHOSPHATASE” value [2] was 339 u/L and the “ASPARTATE AMINOTRANSFERASE” value [2] was 80 u/L. For the same substance, the “BLOOD UREA NITROGEN” value [2] was 13.33 mg/dL, the “CARBON DIOXIDE” value [2] was 33 mmol/L and the CHLORIDE [2] was 99 MEQ/L. The CHOLESTEROL [2] was 74.67 mg/dL, the “CREATINE PHOSPHOKINASE” value [2] was 263.33 u/L and the CREATININE [2] was 0.31 mg/dL. For the same substance, the GLUCOSE [2] was 134 mg/dL, the “LACTATE DEHYDROGENASE” value [2] was 132.67 u/L and the LIPASE [2] was 14.33 u/L. It also gave a PHOSPHORUS [2] of 11.33 mg/dL, a POTASSIUM [2] of 5.88 MEQ/L and an SODIUM [2] of 146.7 MEQ/L. The “TOTAL BILIRUBIN” value [2] was 0.17 mg/dL, the “TOTAL PROTEIN” value [2] was 6.4 G/DL and the “URIC ACID” value [2] was 0.57 mg/dL. The “ABSOLUTE BASOPHIL” value [3] was 0 CELLS/uL, the “ABSOLUTE EOSINOPHIL” value [3] was 0 CELLS/uL and the “ABSOLUTE LYMPHOCYTE” value [3] was 6951.33 CELLS/uL. For the same substance, the “ABSOLUTE MONOCYTE” value [3] was 49.33 CELLS/uL, the “ABSOLUTE SEGMENTED NEUTROPHIL” value [3] was 532.67 CELLS/uL and the BASOPHIL [3] was 0%. For the same substance, the EOSINOPHIL [3] was 0%, the “ERYTHROCYTE COUNT” value [3] was 5.19 x10E6/uL and the HEMATOCRIT [3] was 32%. For the same substance, the HEMOGLOBIN [3] was 12.7 G/DL, the “LEUKOCYTE COUNT” value [3] was 7.53 x10E3/uL and the LYMPHOCYTE [3] was 92%. The “MEAN CORPUSCULAR HEMOGLOBIN CONCENTRATION” value [3] was 39.7 G/DL, the MONOCYTE [3] was 0.67% and the NEUTROPHIL [3] was 7.33%. For the same substance, the “NUCLEATED RED BLOOD CELLS” value [3] was 0 /100WBC, the “PLATELET COUNT” value [3] was 1337.33 x10E3/uL and the “ALANINE AMINOTRANSFERASE” value [4] was 41.67 u/L. For the same substance, the ALBUMIN [4] was 4 G/DL, the “ALKALINE PHOSPHATASE” value [4] was 253 u/L and the “ASPARTATE AMINOTRANSFERASE” value [4] was 83 u/L. The “BLOOD UREA NITROGEN” value [4] was 10.33 mg/dL, the “CARBON DIOXIDE” value [4] was 27 mmol/L and the CHOLESTEROL [4] was 81.33 mg/dL. For the same substance, the “CREATINE PHOSPHOKINASE” value [4] was 396 u/L, the CREATININE [4] was 0.38 mg/dL and the “LACTATE DEHYDROGENASE” value [4] was 126.67 u/L. For the same substance, the LIPASE [4] was 11.33 u/L, the POTASSIUM [4] was 5.16 MEQ/L and the “TOTAL BILIRUBIN” value [4] was 0.1 mg/dL. For the same substance, the “URIC ACID” value [4] was 0.83 mg/dL, the “ABSOLUTE BASOPHIL” value [5] was 0 CELLS/uL and the “ABSOLUTE EOSINOPHIL” value [5] was 0 CELLS/uL. The “ABSOLUTE LYMPHOCYTE” value [5] was 13230 CELLS/uL, the “ABSOLUTE MONOCYTE” value [5] was 139 CELLS/uL and the “ABSOLUTE SEGMENTED NEUTROPHIL” value [5] was 1031 CELLS/uL. The BASOPHIL [5] was 0%, the EOSINOPHIL [5] was 0% and the “ERYTHROCYTE COUNT” value [5] was 6.04 x10E6/uL. The HEMATOCRIT [5] was 35.43%, the HEMOGLOBIN [5] was 13.83 G/DL and the “LEUKOCYTE COUNT” value [5] was 14.4 x10E3/uL. The LYMPHOCYTE [5] was 92%, the “MEAN CORPUSCULAR HEMOGLOBIN” value [5] was 22.97 pg and the “MEAN CORPUSCULAR HEMOGLOBIN CONCENTRATION” value [5] was 39.07 G/DL. The “MEAN CORPUSCULAR VOLUME” value [5] was 58.67 fL, the MONOCYTE [5] was 1% and the NEUTROPHIL [5] was 7%. For the same substance, the “NUCLEATED RED BLOOD CELLS” value [5] was 0.33 /100WBC, the “PLATELET COUNT” value [5] was 1226 x10E3/uL and the “ALANINE AMINOTRANSFERASE” value [6] was 46.33 u/L. The “ALKALINE PHOSPHATASE” value [6] was 257 u/L, the “ASPARTATE AMINOTRANSFERASE” value [6] was 82 u/L and the “BLOOD UREA NITROGEN” value [6] was 11.67 mg/dL. For the same substance, the “CARBON DIOXIDE” value [6] was 35 mmol/L, the CHLORIDE [6] was 97.67 MEQ/L and the CHOLESTEROL [6] was 86 mg/dL. For the same substance, the “CREATINE PHOSPHOKINASE” value [6] was 294 u/L, the CREATININE [6] was 0.19 mg/dL and the “LACTATE DEHYDROGENASE” value [6] was 99 u/L. The PHOSPHORUS [6] was 10.3 mg/dL, the POTASSIUM [6] was 5.89 MEQ/L and the “TOTAL BILIRUBIN” value [6] was 0.13 mg/dL. For the same substance, the “TOTAL PROTEIN” value [6] was 6 G/DL and the “URIC ACID” value [6] was 0.7 mg/dL.
